# Source: patent publication US20190064129A1, “Systems And Methods To Determine Body Drug Concentration From An Oral Fluid” (Sterling Healthcare Opco, LLC, priority 2013, published 2019)
# What was measured:
# [1] = referenced in literature, cited from earlier work; for Kel: elimination constant
# [2] = Oral fluid plasma equivalent calculation; type: in vivo, human
# From the text: (§1) Each donor provides simultaneous serum and oral fluid samples. The measured serum drug concentration is the LC-MS/MS response ratio of drug to internal standard determined from the individual's provided serum sample. The measured oral fluid drug concentration ratio is the LC-MS/MS response ratio of drug to internal standard determined from the individual's provided oral fluid sample. The oral fluid plasma equivalent is derived from the individual's measured oral fluid drug concentration, salivary pH, as well as various drug parameters referenced in literature.
# [formula] • S=Saliva drug concentration (ng/mL) • P=Plasma drug concentration (ng/mL) • pHs=pH of saliva (to be determined at the time of collection) • pHp=pH of plasma (assumed to be 7.4) • pKa=Dissociation constant of a drug (referenced in literature) • fp=Free fraction of drug in plasma (referenced in literature) • fs=Free fraction of drug in saliva (negligible; assumed to be 1)
# Once the S/P ratio for a drug is calculated using Eq. 5 or Eq. 6, oral fluid plasma equivalent is determined by […] the calculated S/P by the measured oral fluid drug concentration determined by LC/MS-MS quantitation, ultimately eliminating the necessity of directly analyzing blood samples to determine donor compliance.
# [3] = Drug pharmacokinetic parameters referenced in literature; type: in vivo; conditions: drug clearance/Vd
# Description: Do=Original dosage taken Vd=Volume of distribution of drug (referenced in literature) times the kg body weight of donor C=Plasma drug concentration Ka=Absorption constant of drug (referenced in literature) Kel=Elimination constant of drug (referenced in literature) F=Bioavailability of drug (referenced in literature) t=Elapsed time between dosage and specimen collection
# Each donor's drug clearance rate is determined by multiplying the drugs clearance rate (referenced in literature) by the donor's weight (provided).
# Likewise, each donor's volume of distribution (DVd) is calculated by multiplying the drug volume of distribution (Vd) (referenced in literature) by the donor's weight (provided).
# [formula] • Css max=Steady state maximum concentration (ng/mL) • F=Fractional bioavailability • k=Fractional rate constant (drug clearance/Vd) • t=Dose frequency (hr) • DVd=Donor volume of distribution (reference Eq. 2)
# [formula] • Do=Original dose taken (mg) • DVd=Volume of distribution of donor (mL) (reference Eq. 2) • C=Plasma drug concentration (mg/mL) • Ka=Absorption constant of drug (referenced in literature) • Kel=Elimination constant of drug (referenced in literature) • F=Fractional bioavailability of drug (referenced in literature) • t=Elapsed time between dosage and specimen collection (fir)
# [4] = LC-MS/MS quantitation of drug in donor serum/plasma; type: in vivo, human
# From the text: (§2) Specimens may undergo a sample preparation step in advance of providing the sample to the drug concentration analysis engine, which involves extracting the analyte(s) of interest from biological matrices. This process serves to eliminate any biological material that could potentially affect analytical results. Samples are first treated to disrupt any drug matrix interactions (protein binding, conjugation) and then adjusted to a specific pH with a buffer. Analytes are then extracted from the remaining matrix using solid phase extraction module 206, which may be comprised of cartridges that are mixed-mode cationic exchange columns. This technique uses the specific binding of ionized drug molecules to the extraction cartridge packing material resulting in strong analyte retention within the column. A series of aqueous and organic wash steps may be used to assist in removing unwanted compounds and matrix components from the sample. Target analytes are then eluted from the solid phase extraction module 206, collected, and analyzed by identification module 208 that may be, for example, a liquid chromatography tandem mass spectrometry (LC/MS-MS) device, although other analysis devices are possible.
# In this exemplary embodiment, the specimens are analyzed by the identification module 208 that is a LC/MS-MS device, which allows for accurate and precise analyte identification and quantitation. This analytical technique uses a chromatographic system to separate all of the sample components into discrete peaks and sequentially identifies each compound through mass spectral identification. The chromatographic system is composed of a stationary phase of hydrophobic character (for example, octadecylsilane) and a mobile phase of varying polarity (for example, methanol, water). Specimens are injected into the chromatograph and pumped through the system by flow of the mobile phase. Separation is brought about by differential interactions with the stationary phase based on physical and chemical properties of the individual analytes. The end result is a separation of all of the sample components into discrete bands. As each component elutes from the liquid chromatograph it enters the mass spectrometer. The mass spectrometer is able to first determine an analytes specific molecular weight, called a precursor ion, and subsequently fragment the precursor ion into smaller fragments called product ions. The precursor ion and generated product ions are a specific marker of every analyte of interest. No two compounds will generate completely identical mass spectra. This allows for the identification module 208 to conclusively identify specimen components. Additionally, when specimens are analyzed alongside a series of standards of known concentration, a calibration curve can be generated and quantitative values of identified drugs can be determined.
# as §1
# plasma proteins = conditions: free fraction in plasma, referenced in literature; cited from earlier work
# [5] = LC-MS/MS quantitation of drug in donor oral fluid (saliva); type: in vivo, human
# From the text: With reference now to FIG. 1, an exemplary methodology 100 for collecting oral fluid will be described. First, the donor (sometimes referred to as subject, patient, person, or the like) is positioned to allow retrieval of the oral fluid sample, step 102. Next, an oral fluid collection device is placed in the donor's mouth, step 104. The collection device in one exemplary embodiment may be an absorbent swab placed under the tongue. One particularly useful collection device that has been developed is shown and described in FIG. 6. In this exemplary embodiment, the oral fluid collection device collects about 1 mL of neat oral fluid from the donor. Generally, the term about or approximately in the present application means within an acceptable tolerance, such as, for example, ±10% or the like. Volumetric collection is required for quantitative analysis when analyzed from a buffer solution. Oral fluid may be absorbed by the collection device by allowing saliva to move up the stem of a collection device via capillary action, step 106. When a sufficient amount of oral fluid is collected, the collection device provides indicia that the required collection amount has been collected, step 108. The indicia indicating the required volume is collected may be by a color change on a collection adequacy indicator or the like. Alternatively, an alpha/numeric display may be provided or an audio alert, such as a beep. Determining salivary pH is completed next or substantially at the same time as the required volume is collected, step 110. The pH of the oral fluid may be determined by a pH sensitive pigment or by other means including, for example, a sensor or the like. The pH indicia may be combined or separate from the indicia for volume and may include the same or different indicators. For example, the volume of the sample may be provided by a color strip whereas the pH may be provided by an audio. […] The pH will then be recorded or otherwise maintained for later use, step 112. In this exemplary embodiment, the donor will provide a sample by placing the collector swab under his or her tongue until the indicator changes color. The swab is then placed in 3 mL of oral fluid extraction buffer that promotes stabilization of the drug, preventing bacterial growth, and facilitates efficient extraction of the drugs and/or metabolites from the adsorbent swab, as is further explained below, step 114. Specimens may be aliquoted for analysis, and any remaining sample may be transferred to long-term storage at, for example, a storage temperature of between about −20 to about 0° C. The collected oral fluid may be referred to as a sample or a specimen interchangeably herein.
# as §2, with “possible. […]” for “possible.”
# [6] = Donor 0182, salivary pH 5.5, dose 5 mg every 6 hr, weight 68.554 kg
# [7] = Donor 0383, salivary pH 5.8, dose 10 mg every 4 hr, weight 68.10 kg
# [8] = Donor 0602, salivary pH 5.5, dose 5 mg every 12 hr, weight 163.44 kg
# [9] = Donor 0442, salivary pH 5.8, dose 100 mg every 8 hr, weight 89.890 kg
# [10] = Donor 0604, salivary pH 5.5, dose 50 mg every 8 hr, weight 81.720 kg
# [11] = Donor 0673, salivary pH 6.8, dose 50 mg every 6 hr, weight 105.782 kg
structure (smiles),measurement,setting,value
COc1ccc2c3c1O[C@H]1C(=O)CC[C@H]4[C@@H](C2)N(C)CC[C@]314 [Hydrocodone],Ka,[1]; absorption constant,2.8 h⁻¹
same,Kel,[1],0.141 h⁻¹
same,Clearance,[1],8.82 mL/min/kg
same,Fractional Bioavailability,[1],0.7
same,Hydrocodone Oral Fluid Plasma Equivalent,"[2]; Donor 0409, salivary pH 6, dose 5 mg every 6 hr, weight 67.646 kg",20.5 ng/mL
same,Oral Fluid Plasma Equivalent,"[2]; Donor 0476, salivary pH 7.2, 5.833 hr after last dose",4.5 ng/mL (reference Eq. 8)
same,Hydrocodone Oral Fluid Plasma Equivalent,"[2]; Donor 0704, salivary pH 6.6, dose 10 mg every 12 hr, weight 147.55 kg",60.5 ng/mL
same,Hydrocodone Oral Fluid Plasma Equivalent,"[2]; Donor 0897, salivary pH 7, dose 10 mg every 4 hr, weight 83.99 kg",10.1 ng/mL
same,Fractional Rate Constant; “k”,[3],0.132 h⁻¹
COc1ccc2c3c1O[C@H]1C(=O)CC[C@@]4(O)[C@@H](C2)N(C)CC[C@]314 [Oxycodone],Kel,[1],0.174 h⁻¹
same,Clearance,[1],12.4 mL/min/kg
same,Fractional Bioavailability,[1],0.735
same,Measured Plasma Oxycodone Concentration,[4]; [6],7.9 ng/mL
same,Measured Plasma Oxycodone Concentration,[4]; [7],8.4 ng/mL
same,Measured Plasma Oxycodone Concentration,[4]; [8],16.7 ng/mL
same,concentration at 1.383 hr,"[4]; human, plasma, 1 mg, Donor 0565, weight 118.040 kg, 1.383 hr after last dose",33.7 ng/mL
same,concentration at 6.05 hr,"[4]; human, plasma, 7.5 mg, Donor 0476, weight 84.898 kg, 6.050 hr after last dose, read-out: Measured Plasma Concentration",3.2 ng/mL
same,Unbound Fraction (fp),plasma proteins,0.55
same,Oxycodone Oral Fluid Plasma Equivalent,[2]; [6],7.5 ng/mL
same,Oxycodone Oral Fluid Plasma Equivalent,[2]; [7],11.3 ng/mL
same,Oral Fluid Plasma Equivalent (Calculated Plasma Concentration),"[2]; Donor 0565, salivary pH 6.4, 1.333 hr after last dose",42.0 ng/mL (reference Eq. 8)
same,Oxycodone Oral Fluid Plasma Equivalent,[2]; [8],24.1 ng/mL
same,concentration at 1.333 hr,"[2]; human, plasma (equivalent calculated from oral fluid), po, 1 mg, Donor 0565, salivary pH 6.4, 1.333 hr after last dose",42 ng/mL
same,Fractional Rate Constant; “k”,[3],0.372 h⁻¹
same,Measured Saliva Oxycodone Concentration,[5]; [6],306.4 ng/mL
same,Measured Saliva Oxycodone Concentration,[5]; [7],230.2 ng/mL
same,Measured Saliva Oxycodone Concentration,[5]; [8],978.2 ng/mL
same,concentration at 1.333 hr,"[5]; human, oral fluid (saliva), po, 1 mg, Donor 0565, salivary pH 6.4, weight 118.040 kg, 1.333 hr after last dose, read-out: Measured Oral Fluid Concentration",217 ng/mL
COc1cccc(C2(O)CCCCC2CN(C)C)c1 (stereo not drawn) [Tramadol],Clearance,[1],8 mL/min/kg
same,Fractional Bioavailability,[1],0.725
same,Volume of Distribution,[1],2.7 L/kg
same,Measured Plasma Tramadol Concentration,[4]; [9],70.4 ng/mL
same,Measured Plasma Tramadol Concentration,[4]; [10],376.6 ng/mL
same,Measured Plasma Tramadol Concentration,[4]; [11],104.1 ng/mL
same,Unbound Fraction (fp),plasma proteins,0.80
same,Tramadol Oral Fluid Plasma Equivalent,[2]; [9],41.2 ng/mL
same,Tramadol Oral Fluid Plasma Equivalent,[2]; [10],475.5 ng/mL
same,Tramadol Oral Fluid Plasma Equivalent,[2]; [11],118.7 ng/mL
same,Fractional Rate Constant; “k”,[3],0.178 h⁻¹
same,Measured Saliva Tramadol Concentration,[5]; [9],1302.5 ng/mL
same,Measured Saliva Tramadol Concentration,[5]; [10],29926.5 ng/mL
same,Measured Saliva Tramadol Concentration,[5]; [11],375.6 ng/mL
